Among the data in BindingDB's records for patent US11981680 (Bristol Myers Squibb, 2024) are IC50 values, retold here.

The assay has as its target Protein-arginine deiminase type-4 (Homo sapiens, UniProt Q9UM07). The assay can be described thus: RFMS Human PAD4 Functional Assay. The protocol: Compounds were solubilized in 100% DMSO to achieve a10 mM compound concentration. Compound stock solutions were stored at RT. A series of dilutions were prepared in DMSO and mixed 8 times with 20 μL mixing volume. Final top concentration of compound in the assay is 50 μM. Final assay conditions were as follows:Reaction volume: 26 μlAssay buffer: 25 mM hepes, pH 7.5, 5 mM NaCl, 1 mM DTT, 0.2 mg/ml BSA, 0.01% CHAPS, 50 μM Calcium, and 5 μM TPENFinal concentrations: 5 nM hPAD4 enzyme, 250 μM BAEE, and 0.5% DMSOTotal incubation time: 30 mins compound and enzyme preincubation at 37° C., 90 min enzyme/substrate reaction, 30 min reaction with phenyl glyoxal at 37° C.Stop solution: 40 μl 5% TCA in ACN0.13 μL of compound solution was added to 13 μL of 10 nM PAD4 in assay buffer. After 30 min 13 μl of 500 μM of BAEE was added in 25 mM hepes, pH 7.5, 5 mM NaCl, 1 mM DTT, 0.2 mg/ml BSA, 0.01% CHAPS, 50 μM Calcium, 5 μM TPEN was added and the reaction incubated for 90 min at 37° C. The enzymatic reaction was quenched by addition of 15 μl of 6.1N TCA, 100% Final Concentration is 20%, 35 μl of 8.5 mM phenyl glyoxal (final concentration 4 mM) is then added and the reaction is incubated for 30 min at 37° C.After 30 minutes the plates are spun down to remove all precipitate. The enzyme reaction was quenched with an equal volume of methanol containing internal standard (modified citrulline). […]

Protein-arginine deiminase type-4, sequence (Q9UM07 whole entry): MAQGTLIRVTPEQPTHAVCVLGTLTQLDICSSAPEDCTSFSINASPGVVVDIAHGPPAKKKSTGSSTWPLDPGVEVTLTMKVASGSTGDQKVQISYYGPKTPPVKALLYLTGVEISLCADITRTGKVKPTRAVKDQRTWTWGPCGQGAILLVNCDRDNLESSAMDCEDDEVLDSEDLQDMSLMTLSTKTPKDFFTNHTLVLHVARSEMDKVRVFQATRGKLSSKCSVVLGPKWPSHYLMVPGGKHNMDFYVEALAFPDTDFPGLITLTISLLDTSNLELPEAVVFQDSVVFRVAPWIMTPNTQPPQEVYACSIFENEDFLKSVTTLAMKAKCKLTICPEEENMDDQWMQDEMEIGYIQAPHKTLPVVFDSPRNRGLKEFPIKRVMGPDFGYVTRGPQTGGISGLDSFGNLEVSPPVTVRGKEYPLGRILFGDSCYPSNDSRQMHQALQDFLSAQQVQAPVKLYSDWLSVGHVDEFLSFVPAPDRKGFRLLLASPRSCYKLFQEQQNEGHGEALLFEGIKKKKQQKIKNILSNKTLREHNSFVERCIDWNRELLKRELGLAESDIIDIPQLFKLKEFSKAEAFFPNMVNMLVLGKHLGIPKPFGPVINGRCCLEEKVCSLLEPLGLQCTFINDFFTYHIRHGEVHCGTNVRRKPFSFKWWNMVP

As for `COc1cc(C(=O)N2C[C@H]3CC[C@@H]2[C@@H]3N)cc2nc(-c3cc4scc(-c5cn[nH]c5)c4n3CC3CC3)n(C)c12` [US11981680, Example 39], the IC50 (as a rule, the concentration that inhibits the measured activity by half) is 35 nM.
